# According to paper PMC9014415, “Repositioning of a Diaminothiazole Series Confirmed to Target the Cyclin-Dependent Kinase CRK12 for Use in the Treatment of African Animal Trypanosomiasis” (Journal of Medicinal Chemistry, 2022):
# What was measured:
# [1] = Mouse hepatocyte stability; assay type: in vitro ADME; details: intrinsic clearance
# in vivo = details: NMRI, mouse
# Experimental: 2.4 Protein plasma binding
# This was determined as previously described.6
# 2.5 PK and maximum tolerated dose - mouse
# PK studies in female NMRI mice (Figure S1): Test compounds 1, 2 and 10 were dosed SC at 10 mg free base/kg (dose volume 10 mL/kg; dose vehicle: 5% (v/v) DMSO, 40% polyethylene glycol 400 (PEG400) and 55% deionized water) to female NMRI mice (n = 3). Blood samples (10 μL) were taken from each mouse at 0.08, 0.25, 0.5, 1, 2, 4, 6, 8 h post dose (24 h post dose for compounds 2 and 10 only) and mixed with two volumes of deionized water (20 μL). Alternatively, compound 2 was delivered for 48 h via SC implanted ALZET osmotic pumps (10, 25 and 50 mg free base/mL, vehicle: 50% DMSO and 50% deionized water) to the female NMRI mouse (n = 3). Blood samples (10 μL) from each mouse were taken at 1, 3, 6, 24, 30 and 48 h post-dose and mixed with two volumes of deionized water (20 μL). […]
# Response to treatment was determined by monitoring parasitaemia twice a week until day 21. […]
# In each of the cattle efficacy studies (3.3, 3.4 and 3.5), efficacy was assessed primarily on absence of recrudescence of parasitaemia for 100 days after treatment administration together with improvements in Packed Cell Volume, body weight and clinical signs of infected compared with uninfected animals. […]
SMILES,Mouse Hepatocyte Cli [1],Cmax (in vivo)
"CC(C)CS(=O)(=O)N[C@H]1CC[C@H](Nc2nc(N)c(C(=O)c3c(F)cccc3F)s2)CC1 [Compound 1, N-((trans)-4-((4-Amino-5-(2,6-difluorobenzoyl)thiazol-2-yl)amino)cyclohexyl)-2-methylpropane-1-sulfonamide]",5.9 mL/min/g,–
"CC(C)CS(=O)(=O)N[C@H]1CC[C@H](Nc2nc(N)c(C(=O)c3c(F)cc(CN(C)C)cc3F)s2)CC1 [Compound 2, N-(trans)-[4-[[4-Amino-5-[4-(dimethylaminomethyl)-2,6-difluoro-benzoyl]thiazol-2-yl]amino]cyclohexyl]-2-methyl-propane-1-sulfonamide]",–,34 to 65 ng/mL
